Reference: US6525065B1, “Pharmaceutical compositions and methods for effecting dopamine release” (priority 1997, dated 2003)
Counter-ions that a name gives are not always drawn. Like-named read-outs stand apart in the source and are kept apart here.

Assays:
[1] = test system: dopamine release; test: cells; type: cell-based; details: for EC50: read-out: Dopamine Release EC50; for Dopamine Release Ecmax: amount released relative to (S)-(-)-nicotine on a percentage basis
[2] = molecular target: T1, muscle-type nicotinic acetylcholine receptors (Homo sapiens, UniProt P02708+P07510+Q07001); test: cell-based
T1 construct: endogenous in cells; host or cells: TE671/RD (own knowledge of the cited US 5,597,919)

[3] = molecular target: ganglionic-type nicotinic acetylcholine receptors (Rattus norvegicus, UniProt P04757+P12392); test: cell-based; details: read-out: Ganglion Effect Ecmax
[4] = read-out: Dopamine Release Ecmax
[5] = maximal activation as percentage of that induced by (S)-(-)-nicotine
[6] = read-out: Dopamine Release Ecmax, amount released relative to (S)-(-)-nicotine on a percentage basis

Chain of ganglionic-type nicotinic acetylcholine receptors (P04757 26-499): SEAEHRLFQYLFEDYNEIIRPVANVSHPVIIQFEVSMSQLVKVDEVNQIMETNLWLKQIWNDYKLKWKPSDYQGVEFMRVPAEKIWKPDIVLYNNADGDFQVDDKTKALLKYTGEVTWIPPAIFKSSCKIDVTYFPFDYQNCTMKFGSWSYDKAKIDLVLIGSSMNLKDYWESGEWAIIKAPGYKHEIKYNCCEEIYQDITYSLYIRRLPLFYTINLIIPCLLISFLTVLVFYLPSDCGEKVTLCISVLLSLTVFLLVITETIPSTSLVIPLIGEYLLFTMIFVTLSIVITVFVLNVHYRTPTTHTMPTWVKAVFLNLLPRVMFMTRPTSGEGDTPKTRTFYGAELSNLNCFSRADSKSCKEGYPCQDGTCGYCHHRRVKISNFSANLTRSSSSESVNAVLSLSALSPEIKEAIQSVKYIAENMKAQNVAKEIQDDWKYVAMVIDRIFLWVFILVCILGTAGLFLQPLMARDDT
Chain of ganglionic-type nicotinic acetylcholine receptors (P12392 21-495): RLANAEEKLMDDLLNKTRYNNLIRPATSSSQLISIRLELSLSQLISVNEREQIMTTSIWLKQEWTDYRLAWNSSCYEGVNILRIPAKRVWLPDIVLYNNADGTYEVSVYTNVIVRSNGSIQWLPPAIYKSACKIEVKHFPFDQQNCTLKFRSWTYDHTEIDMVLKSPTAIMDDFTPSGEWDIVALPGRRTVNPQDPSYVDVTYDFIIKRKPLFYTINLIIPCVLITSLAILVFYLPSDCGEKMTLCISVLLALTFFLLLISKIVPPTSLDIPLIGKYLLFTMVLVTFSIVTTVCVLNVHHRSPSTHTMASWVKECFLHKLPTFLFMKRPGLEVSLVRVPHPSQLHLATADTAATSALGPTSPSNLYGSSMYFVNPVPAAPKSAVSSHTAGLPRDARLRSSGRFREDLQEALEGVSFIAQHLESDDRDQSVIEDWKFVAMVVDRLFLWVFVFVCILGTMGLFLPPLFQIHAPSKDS
T1 sequence (P02708 21-457): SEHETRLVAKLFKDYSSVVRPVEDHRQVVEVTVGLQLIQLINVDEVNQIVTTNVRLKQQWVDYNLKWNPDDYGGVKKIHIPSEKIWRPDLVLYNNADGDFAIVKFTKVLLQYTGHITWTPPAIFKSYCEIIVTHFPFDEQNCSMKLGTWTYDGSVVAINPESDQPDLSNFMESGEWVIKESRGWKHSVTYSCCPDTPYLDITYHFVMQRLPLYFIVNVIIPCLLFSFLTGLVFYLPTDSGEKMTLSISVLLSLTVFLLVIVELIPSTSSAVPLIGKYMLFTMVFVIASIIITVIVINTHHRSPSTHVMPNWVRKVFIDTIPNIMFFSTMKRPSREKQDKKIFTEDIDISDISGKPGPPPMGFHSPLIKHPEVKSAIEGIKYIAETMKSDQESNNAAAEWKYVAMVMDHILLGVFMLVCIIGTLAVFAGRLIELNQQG
T1 sequence (P11230 24-501 partner): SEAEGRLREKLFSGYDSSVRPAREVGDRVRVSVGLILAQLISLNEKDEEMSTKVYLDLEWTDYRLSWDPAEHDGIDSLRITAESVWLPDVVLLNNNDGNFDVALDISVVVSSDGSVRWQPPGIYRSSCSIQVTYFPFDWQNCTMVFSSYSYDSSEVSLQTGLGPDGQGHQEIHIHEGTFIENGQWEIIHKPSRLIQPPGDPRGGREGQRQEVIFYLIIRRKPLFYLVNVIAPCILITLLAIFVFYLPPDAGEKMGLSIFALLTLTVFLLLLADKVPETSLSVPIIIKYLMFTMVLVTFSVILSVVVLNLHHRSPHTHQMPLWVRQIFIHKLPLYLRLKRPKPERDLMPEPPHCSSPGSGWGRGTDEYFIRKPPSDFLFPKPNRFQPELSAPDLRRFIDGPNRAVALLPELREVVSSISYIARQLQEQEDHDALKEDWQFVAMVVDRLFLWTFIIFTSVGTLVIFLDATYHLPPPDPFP
T1 sequence (Q07001 22-517): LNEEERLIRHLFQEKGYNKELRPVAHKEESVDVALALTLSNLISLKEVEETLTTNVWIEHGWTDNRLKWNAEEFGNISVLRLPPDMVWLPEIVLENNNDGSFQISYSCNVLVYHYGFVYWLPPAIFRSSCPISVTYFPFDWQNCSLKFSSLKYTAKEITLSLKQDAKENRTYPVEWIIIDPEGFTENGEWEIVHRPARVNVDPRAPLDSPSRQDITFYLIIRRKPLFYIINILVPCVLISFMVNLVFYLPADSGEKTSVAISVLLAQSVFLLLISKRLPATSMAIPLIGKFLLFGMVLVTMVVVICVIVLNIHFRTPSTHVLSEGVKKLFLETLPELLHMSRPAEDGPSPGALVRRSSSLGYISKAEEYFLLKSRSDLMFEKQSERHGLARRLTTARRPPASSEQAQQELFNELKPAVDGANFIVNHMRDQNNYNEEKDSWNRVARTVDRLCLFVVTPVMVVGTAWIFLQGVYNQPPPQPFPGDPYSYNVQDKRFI
T1 sequence (P07510 23-517): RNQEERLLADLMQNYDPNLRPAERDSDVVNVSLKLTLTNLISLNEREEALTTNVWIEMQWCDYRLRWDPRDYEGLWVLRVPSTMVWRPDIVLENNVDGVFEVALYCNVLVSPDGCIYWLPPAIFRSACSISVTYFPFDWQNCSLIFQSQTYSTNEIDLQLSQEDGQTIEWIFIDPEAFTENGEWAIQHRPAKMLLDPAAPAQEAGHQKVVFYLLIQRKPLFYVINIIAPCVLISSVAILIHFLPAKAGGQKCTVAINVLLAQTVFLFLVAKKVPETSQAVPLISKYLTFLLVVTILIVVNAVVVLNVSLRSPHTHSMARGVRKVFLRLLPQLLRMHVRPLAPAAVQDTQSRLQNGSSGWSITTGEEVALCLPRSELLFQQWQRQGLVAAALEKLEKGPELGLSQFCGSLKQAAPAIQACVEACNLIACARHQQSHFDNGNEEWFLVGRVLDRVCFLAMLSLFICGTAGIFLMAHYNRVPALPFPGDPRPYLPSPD

Structure (SMILES) | EC50 [1] [µM] | Emax [1, 4] [%] | Muscle Effect Ecmax [2] [%] | Emax [3] [%] | Dopamine Release Ecmax [1] [%] | Muscle Effect Ecmax [2, 5] [%] | Emax [1, 6] [%] | EC50 [2] [µM] | EC50 ([2]; read-out: Muscle Effect EC50) [µM] | amounts causing muscle effects and effects upon ganglia relative to those required to cause dopamine release ([1]; selectivity of dopamine release over muscle and ganglion effects) | Emax [3, 5] [%]
c1cncc(C2CC3CCN2CC3)c1 (racemic) [Sample No. 1, (+/−)-1-aza-2-(3-pyridyl)bicyclo[2.2.2]octane] | 0.002 | 40 | 110 | 85 | – | – | – | – | – | – | –
Brc1cncc(C2CC3CCN2CC3)c1 (racemic) [Sample No. 2] | 0.002 | – | – | 106 | 43 | 133 | – | – | – | – | –
c1cncc([C@H]2C[C@@H]3CCN2C3)c1 (relative stereo) [Sample No. 3, exo 1-aza-2-(3-pyridyl)bicyclo[2.2.1]heptane] | 0.006 | – | – | 100 | – | 130 | 130 | 0.1 | – | – | –
c1cncc([C@@H]2C[C@@H]3CCN2C3)c1 (relative stereo) [Sample No. 4, endo-1-aza-2-(3-pyridyl)bicyclo[2.2.1]heptane] | 0.033 | – | – | – | 114 | 130 | – | – | 0.1 | – | –
c1cncc(C2C3CCN2CC3)c1 (stereo not drawn) [Sample No. 5, 1-aza-7-(3-pyridyl)bicyclo[2.2.1]heptane] | 0.004 | – | – | 120 | – | 130 | 93 | 0.3 | – | – | –
Nc1cncc(C2CC3CCN2CC3)c1 (stereo not drawn) [Sample No. 6, 5-(1-azabicyclo[2.2.2]oct-2-yl-3-(amino)pyridinetrihydrochloride] | 0.007 | – | – | – | 43 | 100 | – | – | 3 | many times | 75
CCOc1cncc(C2CC3CCN2CC3)c1.Cl.Cl (stereo not drawn) [Sample No. 7, 5-(1-azabicyclo[2.2.2]oct-2-yl)-3-(ethoxy)pyridine dihydrochloride] | 0.005 | – | – | 86 | – | 137 | 40 | 0.7 | – | – | –
CC(C)Oc1cncc(C2CC3CCN2CC3)c1 (stereo not drawn) [Sample No. 8, 5-(1-azabicyclo[2.2.2]oct-2-yl-3-(isopropyloxy)pyridinedihydrochloride] | – | – | – | 94 | – | – | – | – | 3 | – | –
CN1CCC[C@H]1c1cccnc1 [Sample No. C-1, (S)-(−)-nicotine, reference compound] | 0.115 | 100 | 100 | – | – | – | – | 60 | – | – | –
